Reference: patent US20240100021A1, “Combination Therapy Schedules to Treat Cancer” (priority 2021, published 2024)
Read-outs that look alike come from different tables or passages of the source.

Legend:
[1] = cancer patients, cited from earlier work
[2] = tested on: OCI-AML3 cells; experiment: MTT cell proliferation assay; assay type: cell-based; settings: continuous exposure 48 hrs, 0.038 μM Bis, 0.26 μM Ara-C, 0.3 μM ABT199, 14 nM Clad, alone or combined, versus control cells
[3] = tested on: MOLM14 cells; experiment: MTT cell proliferation assay; assay type: cell-based; settings: 48 hrs, 0.038 μM Bis, 0.45 uM Ara-C, 6.3 nM ABT199, alone or combined, versus control
[4] = cited from earlier work
[5] = animals; cited from earlier work
[6] = tested on: tumor-cytostatic macrophages; settings: activation of tumor-cytostatic macrophages (Wang et al. 1984); cited from earlier work
[7] = tested on: double-stranded DNA; settings: physiological conditions; cited from earlier work
[8] = cited from earlier work; remark: listed apart in the source
[9] = cited from earlier work; remark: listed apart in the source
[10] = cited from earlier work; remark: listed apart in the source
[11] = patients receiving the drug (Myers et al. 1984); cited from earlier work
[12] = cited from earlier work; remark: listed apart in the source
[13] = cited from earlier work; remark: listed apart in the source
[14] = predominantly to albumin; cited from earlier work
[15] = isolated human hepatocytes, in vitro; cited from earlier work
[16] = tested on: PARP1 and caspase 3 cleavage in MOLM14 cells; experiment: Western blot of apoptosis markers; assay type: cell-based; settings: 48 hrs
[17] = 90 min infusion, 260 mg/m^2, biphasic elimination
[18] = 5 day schedule of 60 min infusions
[19] = three phases of elimination (Alberts et al. 1983)
[20] = trial with doses of 80-250 mg/m^2
[21] = triphasic elimination, first of three single dose studies
[22] = triphasic elimination, last of three single dose studies
[23] = triphasic elimination, second of three single dose studies
[24] = hairy cell leukemia, 0.09 mg/kg/day continuous intravenous infusion over 7 days
[25] = pediatric ALL or AML, 52 mg/m^2, noncompartmental analysis

Molecule: Nc1nc(F)nc2c1ncn2[C@@H]1O[C@H](CO)[C@@H](O)[C@@H]1O [2-fluoro-ara-A]
- factor of increase of plasma trough levels ([1]; 5-day treatment schedule, 25 mg 2-fluoro-ara-AMP/m^2 daily over 30 minutes): about 2
- terminal half-life [1]: approximately 20 hours

Molecule: Nc1ccn([C@@H]2O[C@H](CO)[C@@H](O)[C@@H]2O)c(=O)n1 [Ara-C, 1β-arabinofuranosylcytosine]
- cell proliferation [2]: 76%
- cell proliferation [3]: 89%
- plasma radioactivity accounted for by inactive metabolite ara-U ([4]; after the distributive phase): more than 80%
- half-life of initial distributive phase ([4]; intravenous, biphasic elimination): about 10 minutes
- share of urinary radioactivity excreted as ara-U ([4]; within 24 hours): approximately 90%

Molecule: C(=N\NC1=NCCN1)/c1c2ccccc2c(/C=N/NC2=NCCN2)c2ccccc12.Cl.Cl [Bis, 9,10-anthracenedicarboxaldehyde bis[(4,5-dihydro-1H-imidazol-2-yl)hydrazine] dihydrochloride]
- cell proliferation [2]: 80%
- cell proliferation [3]: 79%
- cardiotoxicity [5]: not cardiotoxic
- minimal effective in vivo dose [6]: 25 mg/kg
- affinity constants [7]: above 10^6 M^−1
- plasma concentration ([8]; 72-hr infusion study, dose 56 mg/m^2): 12 ± 6 ng/mL
- plasma concentration ([8]; 72-hr infusion study, dose 260 mg/m^2): 55 ± 8 ng/mL
- plasma clearance ([8]; 72-hr infusion study): 1306±179 ml/min/m^2
- urinary excretion of the dose ([8]; 72-hr infusion study, in 24 hr): 4.6%
- administered dose excreted unchanged in the urine ([8]; 90 min infusion, 260 mg/m^2, after 24 hr): 11.3%
- initial half-life [8, 17]: 1.08 ± 0.25 h
- terminal half-life [8, 17]: 19.03 ± 3.77 h
- plasma clearance ([8]; 90 min infusion, 260 mg/m^2): 735 ml/min/m^2
- steady state volume of distribution (Vdss) ([8]; 90 min infusion, 260 mg/m^2): 1845 L/m^2
- dose excreted in the urine [8, 18]: 7.1%
- t½ α [8, 18]: 0.9 h
- t½ β [8, 18]: 9.7 h
- dose excreted in the urine ([8]; human, in vivo): Less than 7%
- area under the plasma concentration x time curve ([8]; intravenous dose 260 mg/m^2): 4400 µg·h/mL
- area under the plasma concentration x time curve ([8]; intravenous dose 340 mg/m^2): 5700 µg·h/mL
- volume of distribution ([8]; one report, interpreted as tissue sequestration): 687 L/m^2
- beta phase of elimination [8, 19]: approximately 1.5 hours
- initial distributive phase of elimination [8, 19]: 6 min
- administered dose found in the urine ([8]; trial with doses of 80-250 mg/m^2, after 96 hr): 3.4±1.1%
- calculated volume of distribution [8, 20]: 42.1 ± 5.9 L/kg
- clearance [8, 20]: 17.425 ± 0.85 mL/min/kg
- initial half-life [8, 20]: 0.6 h
- terminal half-life [8, 20]: 24.7 h
- t½ α [8, 21]: 0.0573 h
- t½ β [8, 21]: 1.33 h
- t½ γ [8, 21]: 26.13 h
- t½ α [8, 22]: 0.1 h
- t½ β [8, 22]: 1.9 h
- t½ γ [8, 22]: 43.9 h
- t½ α [8, 23]: 0.05 h
- t½ β [8, 23]: 1 h
- t½ γ [8, 23]: 8 h
- bound to plasma proteins [9]: More than 95%
- maximally tolerated dose ([10]; daily×5, repeat every 4 weeks (Spiegel et al. 1982)): 80 mg/m^2
- maximally tolerated dose ([10]; monthly (every 3-4 week) (Von Hoff et al., 1981b)): 260 mg/m^2
- maximally tolerated dose ([10]; monthly, patients with poor bone marrow reserve (Von Hoff et al., 1981b)): 240 mg/m^2
- maximally tolerated dose ([10]; weekly×3 (Alberts et al. 1982)): 200 mg/m^2
- maximally tolerated dose ([10]; weekly×3, patients with poor bone marrow reserve (Alberts et al. 1982)): 150 mg/mg^2
- maximally tolerated dose ([10]; weekly×3, repeat every 4-5 week (B.-S. Yap et al. 1982)): 150 mg/m^2
- ejection fraction, radioangiocardiographic monitoring [11]: no decrease in ejection fraction
- electrocardiographic changes [11]: No patients experienced electrocardiographic changes

Molecule: Nc1nc(Cl)nc2c1ncn2[C@H]1C[C@H](O)[C@@H](CO)O1 [Clad, 2-chloro-6-amino-9-(2-deoxy-β-D-erythropentofuranosyl) purine]
- cell proliferation [2]: 87%
- mean terminal half-life ([12]; 2 hour infusion 0.12 mg/kg, normal renal function): 5.4 h
- mean clearance ([12]; 2 hour infusion 0.12 mg/kg): 16.3 ± 7.03 mL/min/kg
- mean steady-state volume of distribution ([12]; 2 hour infusion 0.12 mg/kg): 4.5 ± 2.8 L/kg
- average half-life ([12]; after intravenous administration, multi-exponential decline): 6.7 ± 2.5 h
- mean steady-state serum concentration [12, 24]: 5.7 ng/mL
- systemic clearance [12, 24]: 11.06 mL/min/kg
- mean end-of-infusion plasma concentration ([12]; hematologic malignancies, 2 hour infusion 0.12 mg/kg): 48 ± 19 ng/mL
- apparent volume of distribution ([12]; human, in vivo): approximately 9 L/kg
- cerebrospinal fluid concentrations relative to plasma ([12]; one report): approximately 25%

Molecule: Nc1nc(Cl)nc2c1ncn2[C@@H]1O[C@H](CO)[C@@H](O)[C@@H]1F [clofarabine, 2-Chloro-9-(2-deoxy-2-fluoro-beta-D-arabinofuranosyl)-9H-purin-6-amine]
- dose excreted in the urine unchanged ([13]; 24-hour urine collections, pediatric studies): 49-60%
- systemic clearance [13, 25]: 28.8 L/h/m^2
- volume of distribution at steady-state [13, 25]: 172 L/m^2
- terminal half-life ([13]; pediatric ALL or AML, 52 mg/m^2): 5.2 h
- bound to plasma proteins [14]: 47%
- metabolism [15]: 0.2%

Molecule: ABT199
- cell proliferation [2]: 79%
- cell proliferation [3]: 77%
- cleavage of PARP1 and caspase 3 [16]: caused cleavage of PARP1
